Measured values: patent US10537610B1, “Peptide for inhibition of cancer” (priority 2018, dated 2020)
Non-standard residues stand in square brackets, D forms with d. Residues, ends and D or L forms follow the SMILES beside them.

Key:
Type in all cases: cell-based, human
[1] = system: breast cancer cells (MCF-7, MDA-MB-231) across HMEC-1 monolayer; test: Transmigration (TEM) of breast cancer cells across the endothelial monolayer
Experimental: (§1) The peptides were synthesized and purified by LifeTein, LLC (Somerset, N.J., USA) with the purity of not less than 95% using PeptideSyn™ technology that incorporates solid phase fluorenylmethyloxycarbonyl (Fmoc) chemistry. The cells were treated with the peptide P4D for 0, 1, 5, or 24 hours at a concentration of 500 μM. The cells treated with the Scrambled peptide P4D (Scr; 500 μM; 0, 1, 5, or 24 hours incubation time) were used as a negative control. In order to provide the positive control of the junctions tightening for impedance-based measurements of endothelial permeability, the cells were incubated with the potent activator of TJ assembly, forskolin (FSK; BioShop, Burlington, ON, Canada), for 24 hours at a concentration of 10 μM.
HMEC-1 endothelial cells were cultured in fibronectin-coated Transwell units with polycarbonate filter and 8 μm pores (Costar, Corning, N.Y., USA) in 24-well plates for 2 days at 37° C. to form a confluent monolayer. Human breast cancer (MCF-7, MDA-MB-231) or non-tumorigenic (MCF-10A) human breast cells were starved overnight and labeled with the green fluorescent marker CellTracker Green CMFDA Dye (Molecular Probes, Eugene, Oreg., USA). An aliquot (1×10^5/well) of fluorescent breast cancer cells in serum-free medium was added in the top of the Transwell chamber, whereas the conditioned medium was used as a chemoattractant in the lower compartment. Non-tumorigenic human breast cell line MCF-10A was used as control. The wells containing the serum-free medium in the lower compartment were used to estimate the background migration. The breast cancer cells were allowed to migrate across the endothelial monolayer for 6 hours in a humidified incubator (temperature of 37° C. and 5% CO2 atmosphere) with or without the previously specified factors or with their combinations.
At the end of the transmigration assay, non-migrated cells were gently wiped out from the inner surface of the membrane with cosmetic cotton swab. The assay was documented at 200× magnification (10× eyepiece and 20× objective) with fluorescent inverted microscope Axio Vert.A1 (Zeiss, Oberkochen, Germany) and high-performance CMOS 2.3-MP AxioCam 702 mono digital camera (Zeiss) controlled by ZEN software, version 2.3 (Zeiss). The migrated cells (five randomly chosen fields of each well) were counted using the Cell Counter tool of the ImageJ software. Cell migration towards serum-free medium was treated as background and subtracted from the corresponding numbers of cells migrated towards conditioned medium.

[2] = system: MCF-10A cells across HMEC-1 monolayer; test: Transmigration (TEM) of MCF-10A cells across the endothelial monolayer
Experimental: as §1
HMEC-1 endothelial cells were cultured in fibronectin-coated Transwell units with polycarbonate filter and 8 μm pores (Costar, Corning, N.Y., USA) in 24-well plates for 2 days at 37° C. to form a confluent monolayer. […]
At the end of the transmigration assay, non-migrated cells were gently wiped out from the inner surface of the membrane with cosmetic cotton swab. […] The migrated cells (five randomly chosen fields of each well) were counted using the Cell Counter tool of the ImageJ software. […]

[3] = system: breast cancer cells (MCF-7, MDA-MB-231) on HMEC-1 cells; test: Adhesion of breast cancer cells to endothelial monolayer under static conditions; settings: P4D 500 μM
Experimental: as §1
(§2) Adhesion of human breast cancer (MCF-7, MDA-MB-231) or non-tumorigenic (MCF-10A) human breast cells to HMEC-1 cells was performed in 24-well plates. HMEC-1 cells were seeded to the bottom of the fibronectin-coated wells 2 days before the assay to form the monolayer and subjected to a suitable treatment. Breast cancer or non-tumorigenic cells were starved overnight and on the day of the assay were labeled with CellTracker Green CMFDA Dye for 30 minutes. […] The adherent cells were lysed by 2% SDS and the fluorescence was measured using the Wallac 1420 VICTOR2 Multilabel Counter (PerkinElmer) at 492 nm of excitation and 517 nm of emission wavelengths.

[4] = system: MCF-10A cells on HMEC-1 cells; test: Adhesion of non-tumorigenic MCF-10A cells to endothelial monolayer under static conditions; settings: P4D 500 μM; TNF/IFN-treated HMEC-1
Experimental: as §1, §2

[5] = system: HMEC-1 endothelial monolayer; test: Macromolecular permeability of endothelial monolayer (FITC-dextran tracer assay)
Experimental: Macromolecular permeability of endothelial monolayer was analyzed by macromolecular tracer assay. HMEC-1 cells were grown in Transwell inserts with polyethylene terephthalate (PET) filters and 0.4-μm pores (Falcon, cat. #353095) in 24-well plates (Falcon, cat. #351147) at 1.5×10^5 cells/insert and immediately treated with P4D peptide (P4D) or with Scrambled P4D peptide (Scr) at a concentration of 500 μM (the samples indicated as 0 hours of incubation). Non-treated cells served as a control sample (Ctrl). Moreover, HMEC-1 cells were treated with P4D peptide at the following periods of time after seeding: 1 hour, 5 hours and 24 hours. One hour after the last treatment with P4D (24 hours) FITC-dextran with a molecular weight of 40 kDa was added into the inserts and the culture medium from the wells was replaced with PBS. After 1 hour incubation in darkness in a humidified incubator with the temperature of 37° C. and 5% CO2 atmosphere, the PBS from the wells (outside the inserts) was transferred into the wells of a black 96-well plate and the fluorescence was measured using the Wallac 1420 VICTOR2 Multilabel Counter (PerkinElmer, Waltham, Mass., USA) at 492 nm of excitation and 517 nm of emission wavelengths.

Row | Molecule | transmigration of MCF-7 and MDA-MB-231 across HMEC-1 monolayer, effect of Tβ4 ([1]; Tβ4 200 nM, 24 hours, vs. CTRL (non-treated) cells) | TEM of MCF-10A cells, effect of Tβ4 ([2]; Tβ4 200 nM, 24 hours, in the presence of the Scr peptide) | adhesion of MECs to inflamed endothelial monolayer ([3]; HMEC-1 preincubated with TNF-α 10 ng/ml and IFN-γ 20 ng/ml for 24 hours) | extent of adhesion inhibition, MDA-MB-231 cells compared with other MECs ([3]; cytokine-inflamed HMEC-1) | adhesion of MCF-10A cells to cytokine-treated endothelium [4] | transmigration of breast cancer cells across cytokine-activated endothelial monolayer ([1]; P4D 500 μM, HMEC-1 preincubated with TNF/IFN) | Tβ4-activated TEM ([1]; P4D 500 μM, HMEC-1 preincubated with Tβ4 200 nM for 24 hours, all tested MECs (MCF-7, MDA-MB-231, MCF-10A)) | degree of TEM inhibition, MCF-7 cells compared with other MECs ([1]; P4D 500 μM, inflamed endothelium) | transmigration of MCF-10A cells across cytokine-treated endothelium ([2]; P4D 500 μM, TNF/IFN-treated HMEC-1) | effect on preexisting tight junctions (FITC-dextran flux) ([5]; P4D 500 μM applied 1, 5 or 24 hours after seeding) | transendothelial flux of 40-kDa FITC-dextran ([5]; P4D 500 μM applied immediately after the cells were seeded (0 hours))
1 | Thymosin β4 (SDKPDMAEIEKFDKSKLKKTETQEKNPLPSKETIEQEKQAGES; not fully specified; Thymosin beta-4; UniProt P62328 2-44, looked up) [Tβ4] | slightly stimulated | significantly elevated the TEM of MCF-10A cells |  |  |  |  |  |  |  |  | 
2 | CC(C)[C@H](NC(=O)[C@H](CO)NC(=O)[C@H](N)CCCCN)C(=O)N[C@H](C(=O)N[C@H](CCCNC(=N)N)C(=O)N[C@@H](CCC(=O)O)C(=O)N[C@@H](CC(=O)O)C(=O)N[C@H](C(=O)NCC(=O)N[C@H](C(=O)N[C@@H](Cc1ccc(O)cc1)C(=O)N[C@H](C(=O)N[C@@H](CS)C(N)=O)[C@@H](C)O)[C@@H](C)O)[C@@H](C)O)[C@@H](C)O [Peptide P4D, NH2-(dK)-SVT-(dR)-EDTGTYTC-CONH2] (H-[dK]SVT[dR]EDTGTYTC-NH2) |  |  | restrained the adhesion of MECs to the inflamed endothelial monolayer | most pronounced | markedly inhibited | hindered | abrogated the Tβ4-activated TEM | highest degree of TEM inhibition | markedly inhibited | did not disrupt the preexisting ones | elevated
